# Where “and” joins values, the source holds several entries; their conditions need not be identical. Equal values may be shown once.
# Test system: BDF1 mice, Adenocarcinoma 755 s.c., tumor weight T/C
# Experiment: NCI In Vivo Anticancer Drug Screen. Data for tumor model Adenocarcinoma 755 (subcutaneous) in B6D2F1 (BDF1) mice
# Details: endpoint: mean tumor weight, schedule: Q01DX011 (ip), higher = larger tumour
# Summary of the method: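 Values express treated (T) relative to vehicle-dosed control (C) animals, based on survival or tumour size measured after compound treatment of mice bearing a transplanted tumour.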
# [1] = dose: 11.25 mg/kg/injection, vehicle: methylcellulose (MC)
# [2] = dose: 15.0 mg/kg/injection, vehicle: carboxymethylcellulose (CMC)
# [3] = dose: 22.5 mg/kg/injection, vehicle: methylcellulose (MC)
# [4] = dose: 30.0 mg/kg/injection, vehicle: carboxymethylcellulose (CMC)
# [5] = dose: 45.0 mg/kg/injection, vehicle: methylcellulose (MC)
# [6] = dose: 90.0 mg/kg/injection, vehicle: methylcellulose (MC)
# [7] = dose: 35.0 mg/kg/injection, vehicle: carboxymethylcellulose (CMC)
# [8] = dose: 20.0 mg/kg/injection, vehicle: methylcellulose (MC)
structure (smiles),measurement,setting,value
O=C(CCBr)N1CCN(C(=O)CCBr)CC1,T/C,"dose: 5.6 mg/kg/injection, vehicle: methylcellulose (MC)",103 % of control
same,T/C,[1],89 % of control and 94 % of control
same,T/C,[2],56 % of control
same,T/C,[3],40 % of control and 65 % of control
same,T/C,[4],37 % of control
same,T/C,[5],51 % of control
same,T/C,"dose: 60.0 mg/kg/injection, vehicle: carboxymethylcellulose (CMC)",24 % of control
same,T/C,[6],12 % of control
CN(C)c1ccc2nc3ccc(=[N+](C)C)cc-3sc2c1,T/C,"dose: 5.0 mg/kg/injection, vehicle: carboxymethylcellulose (CMC)",51 % of control
same,T/C,"dose: 5.24 mg/kg/injection, vehicle: carboxymethylcellulose (CMC)",69 % of control
same,T/C,"dose: 5.76 mg/kg/injection, vehicle: carboxymethylcellulose (CMC)",103 % of control
same,T/C,"dose: 10.0 mg/kg/injection, vehicle: carboxymethylcellulose (CMC)",99 % of control
same,T/C,"dose: 10.48 mg/kg/injection, vehicle: carboxymethylcellulose (CMC)",109 % of control
same,T/C,"dose: 11.53 mg/kg/injection, vehicle: carboxymethylcellulose (CMC)",97 % of control
same,T/C,"dose: 20.0 mg/kg/injection, vehicle: carboxymethylcellulose (CMC)",113 % of control
same,T/C,"dose: 20.95 mg/kg/injection, vehicle: carboxymethylcellulose (CMC)",100 % of control
same,T/C,"dose: 25.0 mg/kg/injection, vehicle: carboxymethylcellulose (CMC)",123 % of control
same,T/C,[4],103 % of control
same,T/C,[7],104 % of control
same,T/C,"dose: 40.0 mg/kg/injection, vehicle: carboxymethylcellulose (CMC)",68 % of control
CC(=O)OCC1OC(n2cnc3c(=S)nc(N)[nH]c32)C(OC(C)=O)C1OC(C)=O (stereo not given),T/C,"dose: 0.1 mg/kg/injection, vehicle: carboxymethylcellulose (CMC)",86 % of control
same,T/C,"dose: 0.2 mg/kg/injection, vehicle: carboxymethylcellulose (CMC)",77 % of control
same,T/C,"dose: 0.5 mg/kg/injection, vehicle: carboxymethylcellulose (CMC)",69 % of control
same,T/C,"dose: 1.0 mg/kg/injection, vehicle: carboxymethylcellulose (CMC)",11 % of control and 35 % of control
same,T/C,"dose: 1.5 mg/kg/injection, vehicle: other",26 % of control
same,T/C,"dose: 3.0 mg/kg/injection, vehicle: other",3 % of control
COc1ccc2c(c1)/C(=C/CCN(C)C)c1ccccc1S2,T/C,"dose: 1.0 mg/kg/injection, vehicle: methylcellulose (MC)",87 % of control
same,T/C,"dose: 2.0 mg/kg/injection, vehicle: methylcellulose (MC)",87 % of control
same,T/C,"dose: 3.0 mg/kg/injection, vehicle: methylcellulose (MC)",27 % of control
same,T/C,"dose: 4.0 mg/kg/injection, vehicle: carboxymethylcellulose (CMC)",93 % of control
same,T/C,"dose: 7.0 mg/kg/injection, vehicle: carboxymethylcellulose (CMC)",29 % of control
same,T/C,"dose: 7.0 mg/kg/injection, vehicle: methylcellulose (MC)",42 % of control
same,T/C,[2],67 % of control
same,T/C,"dose: 15.0 mg/kg/injection, vehicle: methylcellulose (MC)",39 % of control
same,T/C,[4],47 % of control
COC(=O)C1=CO[C@H](C)[C@@H]2CN3CCc4c([nH]c5ccccc45)[C@@H]3C[C@H]12,T/C,"dose: 9.0 mg/kg/injection, vehicle: carboxymethylcellulose (CMC)",95 % of control
same,T/C,"dose: 17.5 mg/kg/injection, vehicle: carboxymethylcellulose (CMC)",92 % of control
same,T/C,[7],116 % of control
same,T/C,"dose: 70.0 mg/kg/injection, vehicle: carboxymethylcellulose (CMC)",93 % of control
CCCn1cnc2c(SCC(=O)O)nc(N)nc21,T/C,"dose: 25.0 mg/kg/injection, vehicle: methylcellulose (MC)",58 % of control
same,T/C,"dose: 50.0 mg/kg/injection, vehicle: methylcellulose (MC)",37 % of control
same,T/C,"dose: 100.0 mg/kg/injection, vehicle: methylcellulose (MC)",46 % of control
same,T/C,"dose: 200.0 mg/kg/injection, vehicle: methylcellulose (MC)",36 % of control
CC(C)CSc1ncnc2nc[nH]c12,T/C,"dose: 6.0 mg/kg/injection, vehicle: other",45 % of control
same,T/C,"dose: 11.0 mg/kg/injection, vehicle: other",19 % of control
same,T/C,"dose: 22.0 mg/kg/injection, vehicle: other",5 % of control
same,T/C,"dose: 31.0 mg/kg/injection, vehicle: other",1 % of control
same,T/C,"dose: 45.0 mg/kg/injection, vehicle: other",7 % of control
Fc1cccc(CSc2ncnc3c2ncn3C2CCCCO2)c1 (stereo not given),T/C,[8],13 % of control
same,T/C,"dose: 65.0 mg/kg/injection, vehicle: methylcellulose (MC)",1 % of control
CCOC(C)C(/C=N/NC(N)=S)=NNC(N)=S (stereo not given),T/C,"dose: 15.0 mg/kg/injection, vehicle: saline",49 % of control
same,T/C,"dose: 30.0 mg/kg/injection, vehicle: saline",109 % of control
same,T/C,"dose: 60.0 mg/kg/injection, vehicle: saline",117 % of control
same,T/C,"dose: 120.0 mg/kg/injection, vehicle: saline",71 % of control
C=C(Cl)CN(CC)CCO,T/C,"dose: 50.0 mg/kg/injection, vehicle: other",77 % of control
same,T/C,"dose: 100.0 mg/kg/injection, vehicle: other",69 % of control
same,T/C,"dose: 200.0 mg/kg/injection, vehicle: other",76 % of control
O=C(O)Cn1cccc1,T/C,"dose: 250.0 mg/kg/injection, vehicle: other",80 % of control
same,T/C,"dose: 500.0 mg/kg/injection, vehicle: other",98 % of control
same,T/C,"dose: 4000.0 mg/kg/injection, vehicle: other",70 % of control
Nc1nc(SCc2ccncc2)c2[nH]cnc2n1,T/C,"dose: 1.25 mg/kg/injection, vehicle: methylcellulose (MC)",71 % of control
same,T/C,"dose: 2.5 mg/kg/injection, vehicle: methylcellulose (MC)",41 % of control
same,T/C,"dose: 5.0 mg/kg/injection, vehicle: methylcellulose (MC)",31 % of control
same,T/C,"dose: 10.0 mg/kg/injection, vehicle: methylcellulose (MC)",9 % of control and 12 % of control
same,T/C,[8],3 % of control
O=c1[nH]c(=O)c2[nH]c(N=Nc3ccc(N(CCCl)CCCl)cc3)nc2[nH]1,T/C,"dose: 25.0 mg/kg/injection, vehicle: saline",74 % of control
same,T/C,"dose: 50.0 mg/kg/injection, vehicle: saline",56 % of control
same,T/C,"dose: 100.0 mg/kg/injection, vehicle: saline",6 % of control and 19 % of control
CN(C)CCCN1c2ccccc2Sc2ccc(Cl)cc21,T/C,[1],44 % of control
same,T/C,"dose: 11.25 mg/kg/injection, vehicle: saline",59 % of control
same,T/C,[3],28 % of control
same,T/C,"dose: 22.5 mg/kg/injection, vehicle: saline",47 % of control
same,T/C,[5],33 % of control
same,T/C,"dose: 45.0 mg/kg/injection, vehicle: saline",38 % of control
same,T/C,[6],25 % of control

# Reference: PubChem BioAssay AID180 (DTP/NCI, 2004)
